Laboratory results from patent US20230310654A1 (priority 2020, published 2023).

Key:
[1] = tested on: male cynomolgus monkeys; settings: cynomolgus monkey, in vivo
[2] = tested on: juvenile mice; settings: mouse, in vivo
[3] = tested on: CBE mouse model; settings: in vivo

Molecule | effect on safety or biodistribution of PR001A [1] | lethality (mice died by P27) [2] | body weight ([2]; ip) | adverse effects in peripheral tissues [3] | inhibition of PR001A-encoded and endogenous GCase activity by CBE treatment [3] | reduction of effective GCase activity in tissues following treatment with CBE [3]
CO[C@H]1C[C@@H]2CC[C@@H](C)[C@@](O)(O2)C(=O)C(=O)N2CCCC[C@H]2C(=O)O[C@H]([C@H](C)C[C@@H]2CC[C@@H](O)[C@H](OC)C2)CC(=O)[C@H](C)/C=C(\C)[C@@H](O)[C@@H](OC)C(=O)[C@H](C)C[C@H](C)/C=C/C=C/C=C/1C [rapamycin] | did not appear to have any effect |  |  |  |  | 
conduritol-β-epoxide [CBE] |  | 5 of the 8 | failure to gain weight | No adverse effects | approximately 50% | up to 60%
